One assay deals with aquaporin 4 (AQP-4). Kind of assay: Perivascular AQP-4 immunostaining (electron microscopy) after diffuse traumatic brain injury. The format is in vivo. The conditions noted are these: rat diffuse TBI, intravenous injection at 30 min after injury, 5 h after injury. The text has this: We decided to study the water channels associated with the cerebral vasculature, and in particular aquaporin 4 (AQP-4), in order to see whether there were any changes in the expression of these channels. For these studies, a rat model was used, and raised ICP was induced by diffuse traumatic brain injury. In this model, a traumatic brain injury was induced using the impact-acceleration model. Briefly, the impact-acceleration device delivers an accelerating blow centrally on to the dorsal surface of the skull of halothane anesthetized male Sprague-Dawley rats (380-420 g). The point of impact was protected with a stainless steel disc to prevent skull fracture, while the head was subsequently decelerated using either a foam or gel filled cushion. For severe injury, the 450 g brass weight is dropped from a height of 2 metres. The impact results in extensive, diffuse neuropathological damage throughout the brain with associated neurological deficits. Immunohistochemical labelling was used to investigate the expression of aquaporin-4 (FIG. 1). Briefly, electron microscopy of AQP-4 used a rabbit polyclonal antibody (Alpha Diagnostic International, Inc., San Antonio) as the primary antibody, with immunolabelling completed using biotinylated secondary antibody (goat anti-rabbit IgG) and streptavidin-peroxidase complex (Rockland, Gilbertsville, Pa.). […]

Assay [1] relates to blood brain barrier permeability after injury. The experiment in a line: Attenuation of blood brain barrier permeability after injury (dose finding). The format is in vivo, rat. The conditions noted are these: intravenous, 30 min after induction of injury. As to the method: N-acetyl-tryptophan was dissolved in sterile, normal saline, and administered by intravenous injection at 30 min after induction of injury. […] The optimal dose, based on the ability of the drug to attenuate blood brain barrier permeability after injury, was 2.5 mg/kg.

Assay [2] concerns rat model of traumatic brain injury. Kind of assay: Diffusion weighted imaging of cerebral oedema after severe diffuse traumatic brain injury. The settings on record: severe diffuse TBI, treatment 30 min after insult, 10^-5 mol/kg, imaged 5 h after injury. It is filed as in vivo. The text has this:
After a traumatic injury (left-hand panel), areas of hyperintensity reflect an increased ADC, which at this early time point is indicative of vasogenic edema.
In order to observe whether a substance P receptor antagonist could facilitate the movement of water out of the brain, we carried out nuclear magnetic resonance spectroscopy (NMR) studies using a rat model of traumatic brain injury. Diffusion-weighted NMR images were generated following trauma (FIG. 2, left-hand panel).
Following injury, a number of “brighter” areas are clearly visible within the brain. These “bright” areas correlate with regions where extracellular water is gathering within the brain.

Assay [3] has as its system sheep model of diffuse traumatic brain injury. The experiment in a line: Intracranial pressure in the sheep model of diffuse traumatic brain injury. It is filed as in vivo. The settings on record: administered at 30 min after injury. As to the method:
Following traumatic injury, intracranial pressure was measured in the sheep using a standard neurosurgical “bolt” and pressure transducer (FIG. 3).
(§1) Briefly, 2-year-old male Merino sheep were impacted in the left temporal region by a humane stunner. Sheep were continuously anesthetized and ventilated using 2.5% isoflurane in oxygen (4 L/min). Animals were then placed into a prone sphinx position, and restrained to the table, leaving the neck and head mobile relative to the body. Impact injury was induced at the midpoint between the left supraorbital process and the left external auditory meatus using a Captive humane bolt stunner armed with a number 7 red charge (model KML, Karl Schermer & Co., Germany). The injury produced by this method has been fully characterised, and mimics that seen in human TBI victims. (Lewis, S. B., Finnie, J. W., Blumbergs, P. C., Scott, G., Manavis, J. Brown, C., Reilly, P. L., Jones, N. R., McLean, A. J. (1996) A head impact model of early axonal injury in the sheep. J Neurotrauma 13, 505-514.)
After injury, animals were stabilised and the heads restrained to the operating table to facilitate insertion of intracranial pressure (ICP) and brain tissue oxygenation (PbtO2) probes between 15 and 30 min after trauma. Following exposure of the skull, a 5.8 mm burr hole was performed at a point 4 cm lateral to the sagittal midline on the ipsilateral side, the dura matter opened and a calibrated Codman Microsensor ICP transducer inserted such that the tip of the sensor was 1.5 cm into the parenchyma of the left parietal lobe. The probe was attached to a Codman ICP Express monitoring system (Codman and Shurtleff Inc., USA) for digital recording.

The test system is the same in assay [4]. Kind of assay: Brain tissue oxygenation (PbtO2) in the sheep model of diffuse traumatic brain injury. It is filed as in vivo.
Source text: as §1
The injury was carried out in sheep as previously described. In addition to the burr hole for ICP monitoring, a second burr hole 1 cm lateral to the sagittal midline and over the left fronto-parietal suture allowed insertion of the distal end of a LICOX® PbtO2 probe to a depth of 2 cm. The probe was attached to a LICOX® brain tissue oxygen monitoring system (Integra, USA) for digital recording. After insertion of the probes, both burr holes were sealed using bone wax. ICP and PbtO2 was recorded every 30 min for a period of 4 hours.

Assay [5] has as its system rat diffuse traumatic brain injury model. The experiment in a line: ICP after diffuse traumatic brain injury plus hypoxia in the rat. It is filed as in vivo. The conditions noted are these: male Sprague Dawley rats, diffuse TBI + 15 min hypoxia. Here is the method:
Male Sprague Dawley rats were injured using a diffuse traumatic brain injury model, and then made hypoxic for a period of 15 minutes, before being ventilated on normal air. ICP was monitored using a Codman ICP pressure sensor for the ensuing 4 hours. After injury, ICP increased from a mean of 4.88±0.12 mm Hg to a mean of 9.23±0.28 mm Hg, an increase of 96%. Treatment with the NK1 antagonist, NAT, reduced ICP by a mean value 21%. […] Male Sprague Dawley rats were injured using the widely accepted diffuse traumatic brain injury model, and then made hypoxic for a period of 15 minutes, before being ventilated on normal air. ICP was monitored using a Codman ICP pressure sensor for the ensuing 4 hours. After injury, ICP increased from a mean of 4.88±0.12 mm Hg to a mean of 9.23±0.28 mm Hg, an increase of 96%. Treatment with the NK1 antagonist, NAT, reduced ICP by a mean value 21% (FIG. 6).

In the case of `CC(=O)N[C@@H](Cc1c[nH]c2ccccc12)C(=O)O` [N-acetyl-L-tryptophan], the “expression of aquaporin-4 (perivascular AQP-4 channels)” value with aquaporin 4 (AQP-4) is reported as “rise in the expression of aquaporin-4 to, or indeed above, pre-injury levels”; with aquaporin 4 (AQP-4) (listed as NAT), “rapid restoration of AQP-4 channels”. Besides, the “optimal dose, based on ability to attenuate blood brain barrier permeability after injury” value in assay [1] is listed as 2.5 mg/kg. Besides, the figures for the “cerebral oedema (areas of hyperintensity / water gathering) on diffusion-weighted images” value in assay [2] and in assay [2] (listed as NK1 antagonist) were “no indication of any water gathering in these areas” and “clearly reduces areas of hyperintensity”, respectively. For the same compound, the “effect on intracranial pressure (ICP)” value in assay [3] (listed as N-Acetyl Tryptophan) was “Reduces Intracranial Pressure”; in assay [3] (listed as NK1 antagonist), “immediately decrease in ICP”; in assay [3] (listed as NK1 receptor antagonist) it was “ICP always fell”. The “time for ICP to return to normal (sham) levels after administration” value in assay [3] (listed as NK1 antagonist) is 3 h; in assay [3] (listed as NK receptor antagonist) it was 3 to 4 h. Besides, the “time for brain oxygen levels to be back to normal limits” value in assay [4] (NK1 receptor antagonist after injury) fell in the range of 3 to 4 h. Besides, the “effect on brain oxygen levels” value in assay [4] (administered at 30 min after injury, listed as N-Acetyl Tryptophan) is “Restores Oxygen Levels to Normal”; in assay [4] (administered at 30 min after injury, listed as NK1 antagonist) it was “immediate improvement in brain oxygen status”; in assay [4] (administered at 30 min after injury, listed as NK1 receptor antagonist) it was “oxygen levels start to rapidly recover”. Moreover, the “time after TBI by which brain oxygen values returned to normal (control) levels” value in assay [4] (administered at 30 min after injury, time after TBI) was at most 4 h. Besides, the “functional outcome relative to vehicle treated controls” value in assay [5] is on record as “significant improvement in functional outcome”. Besides, in assay [5] (ICP monitored 4 hours), the “mean reduction of ICP” value came to 21%.

The values above are taken from US20100184819A1, “METHOD FOR REDUCING INTRACRANIAL PRESSURE” (priority 2007, published 2010).
